Experimental data taken from patent publication US20130217594A1, “METHODS FOR SCREENING COMPOUNDS FOR CAPABILITY TO INHIBIT PREMALIGNANT SQUAMOUS EPITHELIAL CELL PROGRESSION TO A MALIGNANT STATE” (Institute for Cancer Research d/b/a The Research Center of …, priority 2010, published 2013).

Experiments:
Assay type in all cases: cell-based, human
HNSCC cells = experiment: Quantitative real-time RT-PCR of transcript levels after E2 exposure, HNSCC cells; details: E2 1 nM, 24 h
Protocol: Cell lines and treatments. MSK-Leuk1 cells were derived from a dysplastic leukoplakia lesion located adjacent to a SCC of the tongue. MSK-Leuk1 cells were cultured in KGM medium (Lonza, Walkersville, Md.). MSK-Leuk1 cells (passage 33) were determined to be identical to the early passage MSK-Leuk1 cells (Identity Mapping Kit, Coriell Institute for Medical Research, Camden, N.J.). All HNSCC cell lines were derived from patients with SCC of the tongue. SCC9 ([…]) and SCC15 ([…]) cells were cultured in S-MEM medium, supplemented with 2 mM L-glutamine, 100 units/ml penicillin, 100 μg/ml streptomycin and 10% FBS. […]
For all the experiments that involved estradiol (E2) exposure, MSK-Leuk1 cells were cultured in phenol red-free and serum-free DermaLife K Medium (Lifeline Cell Technology, Walkersville, Md.). […] Cells were harvested after the appropriate treatment period and analyzed.
Quantitative real-time reverse transcription PCR. RNA was extracted from pelleted cultured cells using the RNeasy Mini kit (Qiagen, Valencia, Calif.) and its quality (18S and 28S RNA) was evaluated by gel electrophoresis. cDNA was synthesized from 1 μg of total RNA, using the High Capacity cDNA Archive Kit (Applied Biosystems, Inc., Foster City, Calif.). […] Transcript levels were quantified and expressed relative to those of the human transferrin receptor (TFRC) as 2^-ΔCt.

MSK-Leuk1 cells [1] = experiment: Quantitative real-time RT-PCR of transcript levels after E2 exposure, MSK-Leuk1 cells; details: E2 1 nM
Protocol: For all the experiments that involved estradiol (E2) exposure, MSK-Leuk1 cells were cultured in phenol red-free and serum-free DermaLife K Medium (Lifeline Cell Technology, Walkersville, Md.). SCC cells were cultured in their respective media with no phenol red, supplemented with charcoal-stripped serum (Gibco, Carlsbad, Calif.). Cells were incubated for 48 h to remove endogenous estrogens and then plated at 70% confluence. After 24 h, the medium was replaced with either control medium containing vehicle (0.01% ethanol) or medium supplemented with 1 nM E2 (Sigma-Aldrich, St. Louis, Mo.). Cells were harvested after the appropriate treatment period and analyzed.
Quantitative real-time reverse transcription PCR. RNA was extracted from pelleted cultured cells using the RNeasy Mini kit (Qiagen, Valencia, Calif.) and its quality (18S and 28S RNA) was evaluated by gel electrophoresis. cDNA was synthesized from 1 μg of total RNA, using the High Capacity cDNA Archive Kit (Applied Biosystems, Inc., Foster City, Calif.). Three μl of the resulting cDNA were mixed with 12.5 μl of 2× TaqMan® Universal PCR master mix and 1.25 μL of 20× primer mix (Applied Biosystems) in a final reaction volume of 25 μL, according to the manufacturer's instructions. Reactions were performed in triplicate in an Applied Biosystems 7900HT Fast Real-Time PCR System using universal conditions. Transcript levels were quantified and expressed relative to those of the human transferrin receptor (TFRC) as 2^-ΔCt.

MSK-Leuk1 cells [2] = experiment: Apoptosis assay (Guava Nexin, annexin V); details: for decrease of apoptosis: E2 1 nM, 72 h
Protocol: Apoptosis assay. Apoptosis was assessed using the Guava Nexin® (Millipore Corp., Billerica, Mass.). Fifty thousand cells were plated per well in 6-well plates. After the appropriate treatment, floating cells were collected, combined with attached cells following trypsinization, and resuspended in DermaLife® K Medium (Lifeline Cell Technology, Walkersville, Md.) supplemented with 5% FBS. The cell suspension (100 μl) was incubated with 100 μl of Guava Nexin® Reagent for 20 min, according to the manufacturer's instructions. Two thousand cells were analyzed from each sample using the Guava EasyCyte™ system, and the resulting data were expressed as a percentage of apoptotic cells (annexin V positive cells/total number of cells counted).

MSK-Leuk1 cells [3] = experiment: Cell proliferation (total DNA, Fluorescent DNA Quantitation kit); details: vector-expressing MSK-Leuk1 cells, E2 1 nM, 72 h, not statistically significant
Protocol: Cell proliferation. Fifty thousand cells/well were plated in 6-well plates. After the appropriate treatment, the DNA content of the cells, an indirect measure of proliferation, was determined using a Fluorescent DNA Quantitation kit (Bio-Rad Laboratories, Hercules, Calif.). In brief, cells were harvested, sonicated in 0.1× TEN assay buffer (Bio-Rad Laboratories) for 5 s, and incubated with a Hoechst dye mixture (BioRad Laboratories) for 1 h. Total DNA was measured using Fluoroscan Ascent FL (Thermo Fisher Scientific, Waltham, Mass.) at an excitation wavelength of 360 nm and an emission wavelength of 460 nm.

MSK-Leuk1 cells [4] = experiment: Cell motility assay (scratch gap closure); details: vector or CYP1B1 shRNA, E2 1 nM, 16 h post-scratch
Protocol: Cell motility assay. MSK-Leuk1 cells, expressing either vector or CYP1B1 shRNA, were cultured in phenol red-free and serum-free medium for 48 h and then plated at 70% confluence. After 24 h, the cells were treated with either vehicle or E2 (1 nM) in triplicate, as described above. When cells reached 100% confluence (48 h later), the surface of the cell culture dish was carefully scratched using a micropipette tip, thus making an evenly distributed gap in the cell monolayer. The medium was replaced, and five representative images of each gap were acquired at 0 h using a Nikon TE-2000U wide field inverted microscope (Optical Apparatus Co., Ardmore, Pa.) equipped with a Roper Scientific Cool Snap HQ camera. Another set of 5-10 representative images per gap was obtained following a 16-h incubation. The area devoid of cells was measured on every image using MetaMorph 7.0 (Molecular Devices, Inc., Sunnyvale, Calif.). The gap closure percentages were calculated as (area at 0 h−area at 16 h)/(area at 0 h).
In addition, a time-lapse movie capturing the process of gap closure in vector-expressing MSK-Leuk1 cells was obtained. The medium was replaced with fresh medium containing 25 mM HEPES buffer, and cells were allowed to incubate for 1 h at 37° C. […] The percentage of proliferating cells (those rounded up for cell division) was counted in this representative area.

induction of CYP1B1 transcript levels over vehicle-treated controls (MSK-Leuk1 cells [1]; 24 h, P=0.0004)	time of peak induction of CYP1B1 transcripts (MSK-Leuk1 cells [1]; time course)	Compound	levels of ERβ, CYP1B1 and COMT transcripts (HNSCC cells)	levels of COMT and ERβ transcripts post-treatment (MSK-Leuk1 cells [1])	decrease of apoptosis (MSK-Leuk1 cells [2]; CYP1B1 shRNA-expressing MSK-Leuk1 cells, P=0.015)	decrease of apoptosis (MSK-Leuk1 cells [2]; vector-expressing MSK-Leuk1 cells, P=0.030)	increase of cell proliferation (MSK-Leuk1 cells [3])	effect of treatment on motility (gap closure) (MSK-Leuk1 cells [4])	effect on E2-mediated decrease in apoptosis (MSK-Leuk1 cells [2]; MSK-Leuk1 cells, fulvestrant 1 μM added to E2 1 nM)
2.3 fold	6 h	C[C@]12CC[C@@H]3c4ccc(O)cc4CC[C@H]3[C@@H]1CC[C@@H]2O [E2, 17β-estradiol]	did not alter the level of any of the transcripts of interest	remained unaltered	30.1%	25.5%	10%	not affected	–
–	–	C[C@]12CC[C@@H]3c4ccc(O)cc4C[C@@H](CCCCCCCCC[S+]([O-])CCCC(F)(F)C(F)(F)F)[C@H]3[C@@H]1CC[C@@H]2O (stereo partly drawn) [fulvestrant]	–	–	–	–	–	–	restored
